Measurements taken from the supplement of paper PMC11665569.

Tests used:
Conditions in all cases: treatment time: 5 days
SW1573 = test system: SW1573
Experimental: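 CCK-8 viability of KRAS G12C-mutant cancer cell lines transfected with control, YAP/TAZ or TEAD1-4 siRNAs and treated with KRAS G12C inhibitors for 5 days; IC50 fitted in Prism after normalising absorbance at 450 nm to vehicle control.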

MIAPACA2 = test: relative viability (fraction of vehicle control); higher = more viable / less inhibited
Experimental: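 CCK-8 viability of MIAPACA2 cells with empty vector or constitutively active YAP S127A, treated with KRAS G12C inhibitors for 5 days, normalised to vehicle control.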

H1373 = test: as above
Experimental: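 CCK-8 viability of H1373 cells with empty vector or constitutively active YAP S127A, treated with KRAS G12C inhibitors for 5 days, normalised to vehicle control.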

KYSE410 = test: as above
Experimental: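 CCK-8 viability of KYSE410 cells transfected with control, YAP/TAZ or TEAD1-4 siRNAs and treated with KRAS G12C inhibitors for 5 days. Values are normalised to vehicle control.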

C=CC(=O)N1CCN(c2ncnc3c(F)c(-c4c(O)cccc4F)c(Cl)cc23)CC1 [ARS1620]
Conditions | IC50 (cell viability, 5 days) [nM] | relative viability
H1373, log10 concentration (uM): 0, ectopic expression: YAP S127A | – | 0.7325
H1373, log10 concentration (uM): 0, ectopic expression: empty vector (YAP experiment) | – | 0.658
H1373, log10 concentration (uM): 0.39794, ectopic expression: YAP S127A | – | 0.627
H1373, log10 concentration (uM): 0.39794, ectopic expression: empty vector (YAP experiment) | – | 0.504
H1373, log10 concentration (uM): 0.69897, ectopic expression: YAP S127A | – | 0.564
H1373, log10 concentration (uM): 0.69897, ectopic expression: empty vector (YAP experiment) | – | 0.413
H1373, log10 concentration (uM): 1, ectopic expression: YAP S127A | – | 0.545
H1373, log10 concentration (uM): 1, ectopic expression: empty vector (YAP experiment) | – | 0.329
H1373, log10 concentration (uM): 1.301029996, ectopic expression: YAP S127A | – | 0.413
H1373, log10 concentration (uM): 1.301029996, ectopic expression: empty vector (YAP experiment) | – | 0.26
H1373, log10 concentration (uM): -0.30103, ectopic expression: YAP S127A | – | 0.811
H1373, log10 concentration (uM): -0.30103, ectopic expression: empty vector (YAP experiment) | – | 0.862
H1373, log10 concentration (uM): -0.60206, ectopic expression: YAP S127A | – | 0.866
H1373, log10 concentration (uM): -0.60206, ectopic expression: empty vector (YAP experiment) | – | 0.847
H1373, log10 concentration (uM): -1, ectopic expression: YAP S127A | – | 0.933
H1373, log10 concentration (uM): -1, ectopic expression: empty vector (YAP experiment) | – | 0.917
H1373, log10 concentration (uM): -2, ectopic expression: YAP S127A | – | 1
H1373, log10 concentration (uM): -2, ectopic expression: empty vector (YAP experiment) | – | 0.989
KYSE410, log10 concentration (uM): 0, siRNA knockdown: TEAD1-4 siRNA 1 | – | 0.606
KYSE410, log10 concentration (uM): 0, siRNA knockdown: TEAD1-4 siRNA 2 | – | 0.433
KYSE410, log10 concentration (uM): 0, siRNA knockdown: YAP/TAZ siRNA 1 | – | 0.792
KYSE410, log10 concentration (uM): 0, siRNA knockdown: YAP/TAZ siRNA 2 | – | 0.59
KYSE410, log10 concentration (uM): 0, siRNA knockdown: negative control siRNA | – | 0.869
KYSE410, log10 concentration (uM): 0.39794, siRNA knockdown: TEAD1-4 siRNA 1 | – | 0.338
KYSE410, log10 concentration (uM): 0.39794, siRNA knockdown: TEAD1-4 siRNA 2 | – | 0.315
KYSE410, log10 concentration (uM): 0.39794, siRNA knockdown: YAP/TAZ siRNA 1 | – | 0.438
KYSE410, log10 concentration (uM): 0.39794, siRNA knockdown: YAP/TAZ siRNA 2 | – | 0.428
KYSE410, log10 concentration (uM): 0.39794, siRNA knockdown: negative control siRNA | – | 0.754
KYSE410, log10 concentration (uM): 0.69897, siRNA knockdown: TEAD1-4 siRNA 1 | – | 0.25
KYSE410, log10 concentration (uM): 0.69897, siRNA knockdown: TEAD1-4 siRNA 2 | – | 0.194
KYSE410, log10 concentration (uM): 0.69897, siRNA knockdown: YAP/TAZ siRNA 1 | – | 0.3
KYSE410, log10 concentration (uM): 0.69897, siRNA knockdown: YAP/TAZ siRNA 2 | – | 0.288
KYSE410, log10 concentration (uM): 0.69897, siRNA knockdown: negative control siRNA | – | 0.556
KYSE410, log10 concentration (uM): 1, siRNA knockdown: TEAD1-4 siRNA 1 | – | 0.106
KYSE410, log10 concentration (uM): 1, siRNA knockdown: TEAD1-4 siRNA 2 | – | 0.0618
KYSE410, log10 concentration (uM): 1, siRNA knockdown: YAP/TAZ siRNA 1 | – | 0.123
KYSE410, log10 concentration (uM): 1, siRNA knockdown: YAP/TAZ siRNA 2 | – | 0.104
KYSE410, log10 concentration (uM): 1, siRNA knockdown: negative control siRNA | – | 0.198
KYSE410, log10 concentration (uM): 1.301029996, siRNA knockdown: TEAD1-4 siRNA 1 | – | 0.0328
KYSE410, log10 concentration (uM): 1.301029996, siRNA knockdown: TEAD1-4 siRNA 2 | – | 0.0272
KYSE410, log10 concentration (uM): 1.301029996, siRNA knockdown: YAP/TAZ siRNA 1 | – | 0.0271
KYSE410, log10 concentration (uM): 1.301029996, siRNA knockdown: YAP/TAZ siRNA 2 | – | 0.0298
MIAPACA2, log10 concentration (uM): 0, ectopic expression: YAP S127A | – | 1.05
MIAPACA2, log10 concentration (uM): 0, ectopic expression: empty vector (YAP experiment) | – | 1.01
MIAPACA2, log10 concentration (uM): 0.39794, ectopic expression: YAP S127A | – | 0.984
MIAPACA2, log10 concentration (uM): 0.39794, ectopic expression: empty vector (YAP experiment) | – | 0.743
MIAPACA2, log10 concentration (uM): 0.69897, ectopic expression: YAP S127A | – | 0.977
MIAPACA2, log10 concentration (uM): 0.69897, ectopic expression: empty vector (YAP experiment) | – | 0.542
MIAPACA2, log10 concentration (uM): 1, ectopic expression: YAP S127A | – | 0.913
MIAPACA2, log10 concentration (uM): 1, ectopic expression: empty vector (YAP experiment) | – | 0.25
MIAPACA2, log10 concentration (uM): 1.301029996, ectopic expression: YAP S127A | – | 0.315
MIAPACA2, log10 concentration (uM): 1.301029996, ectopic expression: empty vector (YAP experiment) | – | 0.0583
MIAPACA2, log10 concentration (uM): -0.30103, ectopic expression: YAP S127A | – | 0.946
MIAPACA2, log10 concentration (uM): -0.30103, ectopic expression: empty vector (YAP experiment) | – | 0.996
MIAPACA2, log10 concentration (uM): -0.60206, ectopic expression: YAP S127A | – | 0.915
MIAPACA2, log10 concentration (uM): -0.60206, ectopic expression: empty vector (YAP experiment) | – | 0.98
MIAPACA2, log10 concentration (uM): -1, ectopic expression: YAP S127A | – | 0.969
MIAPACA2, log10 concentration (uM): -1, ectopic expression: empty vector (YAP experiment) | – | 1.05
MIAPACA2, log10 concentration (uM): -2, ectopic expression: YAP S127A | – | 0.992
MIAPACA2, log10 concentration (uM): -2, ectopic expression: empty vector (YAP experiment) | – | 0.994
SW1573, siRNA knockdown (Con = control): Con | 13200 | –
SW1573, siRNA knockdown (Con = control): TEAD1234_si1 | 342 | –
SW1573, siRNA knockdown (Con = control): TEAD1234_si2 | 164 | –
SW1573, siRNA knockdown (Con = control): YAP_WWTR1_si1 | 100 | –
SW1573, siRNA knockdown (Con = control): YAP_WWTR1_si2 | 132 | –
